Data taken from patent US4363805A, “Aminodesoxy-1.4;3.6-dianhydrohexitol nitrates and pharmaceutical composition” (Firma Willmar Schwabe, priority 1980, dated 1982).

What was measured:
mongrel cats = test: Inotropic and heart-circulatory effectiveness on narcotised cats, intravenous; type: in vivo, cat; settings: 6 animals
[1] = system: isolated guinea pig hearts; test: Experiments on Langendorff hearts (coronary flowthrough, inotropism, frequency); settings: Cavia porcellus, read-out: flowthrough, percentage change with regard to the initial value
Method: After reaching the stationary state in the 30th minute, the hearts were each perfused with 50 ml. tyrode solution with a content of test substance of, in each case, 25 μg./ml. Each test substance was tested on 3-6 hearts.
In each case, there was measured the inotropism, the flowthrough and the frequency, whereby the values given in Table I are average values of the percentage changes in comparison with the initial values.

narcotised guinea pigs = test: Blood pressure experiments on guinea pigs, i.v.; type: in vivo, guinea pig; settings: for blood pressure before: before administration
[2] = 0.25 mg/kg i.v., before administration

`C=CCc1ccccc1OCC(O)CN[C@H]1CO[C@H]2[C@@H]1OC[C@@H]2O[N+](=O)[O-]` (stereo partly drawn) [Example 49, 5-[2-Hydroxy-3-(2-allylphenoxy)-propylamino]-5-desoxy-1.4;3.6-dianhydro-L-iditol 2-nitrate] was tested, and the blood pressure before (mongrel cats; [2]) was 116.6 mm.Hg, the “dp/dt (inotropism) before” value (mongrel cats; [2]) was 7840 mm.Hg/sec and the heart frequency before (mongrel cats; [2]) was 200.4 min⁻¹. The “blood pressure WD” value (mongrel cats; 0.25 mg/kg i.v.) was 2.8 min, the blood pressure after (mongrel cats; 0.25 mg/kg i.v.) was 113.6 mm.Hg and the “blood pressure Δ” value (mongrel cats; 0.25 mg/kg i.v.) was -3.0 mm.Hg. For the same compound, the “dp/dt (inotropism) after” value (mongrel cats; 0.25 mg/kg i.v.) was 7360 mm.Hg/sec, the “dp/dt (inotropism) Δ” value (mongrel cats; 0.25 mg/kg i.v.) was -480 mm.Hg/sec and the “dp/dt WD” value (mongrel cats; 0.25 mg/kg i.v.) was 3.1 min. For the same compound, the heart frequency after (mongrel cats; 0.25 mg/kg i.v.) was 201.2 min⁻¹, the “heart frequency Δ” value (mongrel cats; 0.25 mg/kg i.v.) was “+0.8 min^-1” and the “blood pressure WD” value (mongrel cats; 0.50 mg/kg i.v.) was 3.7 min. For the same compound, the blood pressure after (mongrel cats; 0.50 mg/kg i.v.) was 110.6 mm.Hg, the “blood pressure Δ” value (mongrel cats; 0.50 mg/kg i.v.) was -9.2 mm.Hg and the “dp/dt (inotropism) after” value (mongrel cats; 0.50 mg/kg i.v.) was 6540 mm.Hg/sec. The “dp/dt (inotropism) Δ” value (mongrel cats; 0.50 mg/kg i.v.) was -1060 mm.Hg/sec, the “dp/dt WD” value (mongrel cats; 0.50 mg/kg i.v.) was 14.0 min and the heart frequency after (mongrel cats; 0.50 mg/kg i.v.) was 202.0 min⁻¹. For the same compound, the “heart frequency Δ” value (mongrel cats; 0.50 mg/kg i.v.) was “+2.0 min^-1”, the “blood pressure WD” value (mongrel cats; 1.00 mg/kg i.v.) was 11.6 min and the blood pressure after (mongrel cats; 1.00 mg/kg i.v.) was 105.8 mm.Hg. For the same compound, the “blood pressure Δ” value (mongrel cats; 1.00 mg/kg i.v.) was -16.8 mm.Hg, the “dp/dt (inotropism) after” value (mongrel cats; 1.00 mg/kg i.v.) was 4680 mm.Hg/sec and the “dp/dt (inotropism) Δ” value (mongrel cats; 1.00 mg/kg i.v.) was -2260 mm.Hg/sec. For the same compound, the “dp/dt WD” value (mongrel cats; 1.00 mg/kg i.v.) was greater than 40 min, the heart frequency after (mongrel cats; 1.00 mg/kg i.v.) was 188.4 min⁻¹ and the “heart frequency Δ” value (mongrel cats; 1.00 mg/kg i.v.) was -5.6 min⁻¹. The “blood pressure WD” value (mongrel cats; 2.50 mg/kg i.v.) was greater than 10 min, the blood pressure after (mongrel cats; 2.50 mg/kg i.v.) was 86.6 mm.Hg and the “blood pressure Δ” value (mongrel cats; 2.50 mg/kg i.v.) was -35.0 mm.Hg. For the same compound, the “dp/dt (inotropism) after” value (mongrel cats; 2.50 mg/kg i.v.) was 3780 mm.Hg/sec, the “dp/dt (inotropism) Δ” value (mongrel cats; 2.50 mg/kg i.v.) was -2900 mm.Hg/sec and the “dp/dt WD” value (mongrel cats; 2.50 mg/kg i.v.) was greater than 10 min. For the same compound, the heart frequency after (mongrel cats; 2.50 mg/kg i.v.) was 170.4 min⁻¹, the “heart frequency Δ” value (mongrel cats; 2.50 mg/kg i.v.) was -20.8 min⁻¹ and the activation at 25 µg/mL [1] was 191%. For the same compound, the blood pressure after (narcotised guinea pigs; 0.25 mg/kg i.v.) was 43.50 ± 3.38 mm.Hg, the “blood pressure Δ” value (narcotised guinea pigs; 0.25 mg/kg i.v.) was -2.25 mm.Hg and the blood pressure before (narcotised guinea pigs; 0.25 mg/kg i.v.) was 45.75 ± 2.53 mm.Hg. For the same compound, the blood pressure after (narcotised guinea pigs; 1.00 mg/kg i.v.) was 30.25 ± 1.70 mm.Hg, the “blood pressure Δ” value (narcotised guinea pigs; 1.00 mg/kg i.v.) was -12.75 mm.Hg and the blood pressure after (narcotised guinea pigs; 2.50 mg/kg i.v.) was 20.25 ± 1.03 mm.Hg. For the same compound, the “blood pressure Δ” value (narcotised guinea pigs; 2.50 mg/kg i.v.) was -22.50 mm.Hg.
With `CC(C)(C)C(=O)N[C@H]1CO[C@H]2[C@@H]1OC[C@@H]2O[N+](=O)[O-]` [Example 5, 5-Pivaloylamino-5-desoxy-1.4;3.6-dianhydro-L-iditol 2-nitrate] the activation at 25 µg/mL [1] was 21.2%, the blood pressure after (narcotised guinea pigs; 0.25 mg/kg i.v.) was 54.00 ± 2.52 mm.Hg and the “blood pressure Δ” value (narcotised guinea pigs; 0.25 mg/kg i.v.) was -10.50 mm.Hg. The blood pressure before (narcotised guinea pigs; 0.25 mg/kg i.v.) was 64.50 ± 2.75 mm.Hg, the blood pressure after (narcotised guinea pigs; 1.00 mg/kg i.v.) was 40.50 ± 3.66 mm.Hg and the “blood pressure Δ” value (narcotised guinea pigs; 1.00 mg/kg i.v.) was -22.75 mm.Hg. For the same compound, the blood pressure after (narcotised guinea pigs; 2.50 mg/kg i.v.) was 30.75 ± 8.60 mm.Hg, the “blood pressure Δ” value (narcotised guinea pigs; 2.50 mg/kg i.v.) was -31.75 mm.Hg and the “blood pressure-lowering effectiveness (in words)” value (narcotised guinea pigs; i.v.) was “stronger action than ISDN”.
In the case of `CCN[C@H]1CO[C@H]2[C@@H]1OC[C@@H]2O[N+](=O)[O-]` [10 b], the activation at 25 µg/mL [1] is reported as 25.9%, the blood pressure after (narcotised guinea pigs; 0.25 mg/kg i.v.) is reported as 37.25 ± 2.06 mm.Hg and the “blood pressure Δ” value (narcotised guinea pigs; 0.25 mg/kg i.v.) is reported as -6.00 mm.Hg. For the same compound, the blood pressure before (narcotised guinea pigs; 0.25 mg/kg i.v.) was 43.25 ± 2.21 mm.Hg, the blood pressure after (narcotised guinea pigs; 1.00 mg/kg i.v.) was 32.00 ± 2.04 mm.Hg and the “blood pressure Δ” value (narcotised guinea pigs; 1.00 mg/kg i.v.) was -11.25 mm.Hg. The blood pressure after (narcotised guinea pigs; 2.50 mg/kg i.v.) was 27.25 ± 1.60 mm.Hg and the “blood pressure Δ” value (narcotised guinea pigs; 2.50 mg/kg i.v.) was -15.50 mm.Hg.
